Source: patent US8329678B1, “Antiinflammatory compound” (priority 2011, dated 2012)

Key:
whole blood phagocytes = experiment: Luminol-enhanced chemiluminescence oxidative burst assay, whole blood; type: cell-based, human
Text: (§1) Heparinized blood was obtained by vein puncture aseptically from healthy volunteers (25-38 years age). The buffy coat containing PMNs was collected by dextran sedimentation and the cells were isolated after the LSM density gradient centrifugation from the tube base. Cells were washed twice and suspended in Hank's Balance Salt Solution (Ca^2+ and Mg^2+ free) (HBSS^−−), pH 7.4. Neutrophils were purified from RBCs contamination using hypotonic solution. Cells were adjusted to their required concentration using Hank's Balance Salt Solution containing Ca^2+ and Mg^2+ (HBSS++)
(§2) Luminol-enhanced chemiluminescence assay was performed as described by Helfand et al. (17), and Haklar et al. (18) with some modifications. Briefly, 25 μL diluted whole blood (1:200 dilution in sterile HBSS^++) or 25 μL of PMNs (1×10^6) cells were incubated with 25 μL of serially diluted compounds with concentration ranges between 3.2-50 mg/mL. Tests were performed in white 96-well plates, which were incubated at 37° C. for 30 minutes in the thermostated chamber of the luminometer. Opsonized zymosan-A, 25 μL, followed by 25 μL luminol (7×10^−5M) along with HBSS^++ was added to each well to obtain a 100 μL volume/well. […] Chemiluminescence peaks were recorded with the Luminometer. Results were monitored as chemiluminescence relative light units (RLU) with peak and total integral values.

[1] = tested on: isolated polymorphoneutrophils (PMNs); experiment: Luminol-enhanced chemiluminescence oxidative burst assay, isolated PMNs; type: cell-based, human
Text: as §1, §2

[2] = tested on: human lung cancer cell line (NCI-H460); experiment: Sulforhodamine B (SRB) growth inhibition assay; type: cell-based; conditions: for TGI (μM), could not be determined: NCI-H460, maximum dose 100 μM
Description: The sulforhodamine B (SRB) protein-staining assay was employed for measurement of in vitro growth inhibition and cytotoxicity (21) The appropriate cell density (cells/well) of NCI-H460 cells (1×10^4) was added in 96-well plates. The cell density used was dependent on the doubling time of the cell line leading to the formation of monolayer. After 24 h incubation, different doses of Compounds 1-3 were added and incubated for further 48 h. This was followed by fixation of cells with ice-cold trichloroacetic acid (50 μl, 50%) at room temperature for 30 min. The plates were carefully washed five times with distilled water, and left for overnight drying in air. Sulforhodamine B dye (100 μl, 0.4% in 1% acetic acid) was introduced in each well and after 30 min residual dye was removed using acetic acid (1%) and air-dried overnight. The bound SRB dye was solubilized in Tris-base solution (100 μl, 10 mM) with gentle shaking on a plate-shaker for 5 min prior to optical density (OD) measurements at 545 nm in a plate reader. Drug concentrations causing growth inhibition (GI50) of 50% cells were calculated from dose response curves and total growth inhibition of Compound 2 was also evaluated.

[3] = tested on: PHA-activated T-cell proliferation; experiment: PHA-activated T-cell proliferation assay (3H-thymidine incorporation); type: cell-based, human
Description: The T-cell proliferation assay was performed as described by Nielson et al. (19). In this assay, isolated lymphocytes were stimulated by adding the phytohemagglutinin (PHA) in culture. The rate of proliferation and survival was measured by radiolabelled thymidine incorporation method. The lymphocytes were isolated as described by Boyum (20). A 50 μL of cell suspension (10^6/mL) was added to each well of a 96-well round bottom tissue culture plate. 50 μL of PHA was added in each well from the working solution (20 μg/mL) to have final concentration 5 μg/mL. The final volume was adjusted to 200 μL in each well by adding complete RPMI media. The plates were incubated at 37° C. for 72 hours (90% humidity, 5% CO2/air). Methyl-^3H thymidine (Amersham Pharmacia Biotech) 0.5 μCi was added in each well and incubated for further 18 hours. Cells were harvested on a filter mat (Type G-7) using cell harvester (INOTECH IH-280, Switzerland) and the radioactivity (CPM) was measured using a β-scintillation counter (LS 6500, Beckman Coulter, USA). (FIG. 2A)

[4] = tested on: IL-2 production from peripheral blood mononuclear cells; experiment: IL-2 cytokine production by PHA-activated PBMC (ELISA); type: cell-based, human
Description: IL-2 cytokine was produce from peripheral blood mononuclear cells (PBMC). IL-2 cytokine production by PHA activated cells in the presence or absence of test compounds was studied by ELISA using the human cytokine kit (Diaclone, Besancon Cedex France). Briefly, freshly prepared mononuclear cells (10^5/well) were cultured in 96-well microtiter flat bottom plate in the presence or absence of 5 μg/mL PHA. Four different concentrations (10.33-331.13 μM/mL) of compounds, along with PHA, were used in this assay. The culture plate was incubated at 37° C. for 18 h. Then the supernatant was collected and analyzed for IL-2 cytokine production following kit manufacturer instructions.

Row | Compound | effect on ROS production, whole blood phagocytes (whole blood phagocytes) | effect on ROS production, isolated neutrophils [1] | anticancer activity against NCI-H460 [2] | effect on T-cell proliferation [3] | effect on IL-2 production [4] | TGI (μM), could not be determined [2] | growth inhibition of cancer cells at 100 μM ([2]; 100 μM)
1 | C[C@]12C=CC(=O)C[C@@H]1CC[C@@H]1[C@@H]2CC[C@@]2(C)[C@H]1CC[C@]2(C)O [Compound 2, 17β-hydroxy-17α-methyl-5α-androst-1-en-3-one] | did not result in any significant effect | did not result in any significant effect | showed anticancer activity |  |  |  | 
2 | C[C@]12C=CC(=O)C=C1CC[C@@H]1[C@@H]2CC[C@@]2(C)[C@H]1CC[C@]2(C)O [Compound 1, dianabol, reference compound] |  |  | showed anticancer activity | did not show any significant effect | did not show any significant effect | ND (Values could not be determined indicates <50% inhibition of cell growth at maximum dose (100 μM) tested.) | 
3 | C[C@]12CCC(=O)C[C@@H]1CC[C@@H]1[C@@H]2CC[C@@]2(C)[C@H]1CC[C@]2(C)O [Compound 3, 17β-hydroxy-17α-methyl-5α-androstan-3-one] | did not result in any significant effect | did not result in any significant effect | non-active | moderate inhibitory activity | moderate inhibitory activity | ND (Values could not be determined indicates <50% inhibition of cell growth at maximum dose (100 μM) tested.) | not able to inhibit considerable growth
